Experimental data: patent publication US20080160059A1, “ANTIBIOTIC/ANTIMYCOTIC PREPARATION AND USE IN PLANTS” (priority 2006, published 2008)
Counter-ions that a name gives are not always drawn.

Tested on: Burkholderia andropogonis
Experiment: Absorbent disc test on a bacterial lawn on agar (kill zone)
Type: cell-based
Conditions: intermediate concentration tested; absorbent discs on bacterial lawn
Text: To determine the sensitivity of Burkholderia andropogonis, a stock was applied to commercially prepared agar-containing Petri dishes to provide dishes containing a lawn of bacteria. Then, absorbent discs containing a mixture of oxytetracycline hydrochloride and copper oxychloride, and each of the active ingredients separately, oxytetracycline hydrochloride alone and copper oxychloride alone were placed onto the bacterial lawn. The concentrations of the individual active agents in the discs were the same as that for each found in the combination. The combination and the individual actives were tested at three different concentrations. Each concentration was run in triplicate.
An analogous commercially available system for making routine determinations of bacterial and fungal sensitivity also was used.
The toxicity at each concentration was far greater than the sum of the toxicities of each active agent alone, for example, at the intermediate concentration tested, the bacteria kill zone for oxytetracycline was 3.3 mm in diameter; for copper oxychloride, the zone was 2 mm in diameter; but for the combination, the kill zone was 15 mm in diameter.

Row | SMILES | bacteria kill zone in diameter [mm]
1 | [Cl-].[Cu+2].[Cu+2].[OH-].[OH-].[OH-] [copper oxychloride] | 2
2 | CN(C)[C@@H]1C(O)=C(C(N)=O)C(=O)[C@@]2(O)C(O)=C3C(=O)c4c(O)cccc4[C@@](C)(O)[C@H]3[C@H](O)[C@@H]12 [oxytetracycline hydrochloride] | 3.3
